System: rice plants
Assay: Safening of rice grown from treated seeds against clodinafop herbicide, greenhouse tray test
Assay type: in vivo
Settings: rice seed treatment; for Av. shoot weight: average dry shoot weight five weeks after the clodinafop treatment; for Av. plant height: determined five weeks after the clodinafop treatment
Procedure: Various batches of treated rice seeds were sown in soil contained in trays (0.0425 m^2) at a rice density of 120 kg/ha and their growth monitored in a green house (at 25° C. during the day and 23° C. during the nght). The amounts of the active ingredients, i.e. thiamethoxam (Cruiser 350FS) and N-(2-methoxybenzoyl)-4-[(methylaminocarbonyl)amino]benzene-sulfonamide (safener) used for the rice seed treatment are indicated in the table below. The trays were flooded with water three days after sowing. Nine days after sowing the rice plants were sprayed with the herbicide clodinafop in an amount equal to 100 g/ha. The average plant height and the average dry shoot weight were determined five weeks after the clodinafop treatment.
A similar procedure was performed on untreated seeds except that the clodinafop treatment was omitted (control).
The same procedure as descrbed above was repeated except that the rice plants were treated with the herbicide clodinafop fifteen days after sowing.

[1] = clodinafop 100 g/ha sprayed 9 days after sowing
[2] = clodinafop 100 g/ha sprayed 15 days after sowing

SMILES: CNC(=O)Nc1ccc(S(=O)(=O)NC(=O)c2ccccc2OC)cc1 [C, N-(2-methoxybenzoyl)-4-[(methylaminocarbonyl)amino]benzene-sulfonamide]
- Av. shoot weight [1]: 300 mg
- Av. plant height [1]: 30 cm
- Av. shoot weight [2]: 510 mg
- Av. plant height [2]: 40 cm

SMILES: CNC(=O)Nc1ccc(S(=O)(=O)NC(=O)c2ccccc2OC)cc1 [A, N-(2-methoxybenzoyl)-4-[(methylaminocarbonyl)amino]benzene-sulfonamide]
- Av. shoot weight [1]: 230 mg
- Av. plant height [1]: 24 cm
- Av. shoot weight [2]: 400 mg
- Av. plant height [2]: 35 cm

— US20130225404A1, “PESTICIDAL COMBINATIONS” (SYNGENTA PARTICIPATIONS AG, priority 2010, published 2013)
